pIC50, pKi: −log10 of the molar value.
Columns and labels:
[1] = test system: induction of TAT by dexamethasone in HepG2 cells; assay: Hep G2 TAT assay (inhibition of dexamethasone-induced TAT); format: cell-based, human; conditions: challenge of 100 nM dexamethasone, IC50 converted to Ki by Cheng and Prusoff equation
Protocol: Glucocorticoid mediated activation of TAT occurs by transactivation of glucocorticoid response elements in the TAT promoter by glucocorticoid receptor-agonist complex. The following protocol describes an assay for measuring induction of TAT by dexamethasone in HepG2 cells (a human liver hepatocellular carcinoma cell line; ECACC, UK).
TAT activity was measured as outlined in the literature by A. Ah et al., J. Med. Chem., 2004, 47, 2441-2452.
HepG2 cells were cultured using MEME media supplemented with 10% (v/v) foetal bovine serum; 2 mM L-glutamine and 1% (v/v) NEAA at 37° C., 5%/95% (v/v) CO2/air. The HepG2 cells were counted and adjusted to yield a density of 0.125×10^6 cells/ml in RPMI 1640 without phenol red, 10% (v/v) charcoal stripped FBS, 2 mM L-glutamine and seeded at 25,000 cells/well in 200 μl into 96 well, sterile, tissue culture micro titre plates, and incubated at 37° C., 5% CO2 for 24 hours
Growth media was removed and replaced with assay media {RPMI 1640 without phenol red, 2 mM L-glutamine+10 μM forskolin}. Test compounds were screened against a challenge of 100 nM dexamethasone. Compounds were serially half log diluted in 100% (v/v) dimethylsulphoxide from a 10 mM stock.
Test compounds were pre-incubated with cells in micro-titre plates for 30 minutes at 37° C., 5/95 (v/v) CO2/air, before the addition of 100 nM dexamethasone and then subsequently for 20 hours to allow optimal TAT induction.
HepG2 cells were then lysed with 30 μl of cell lysis buffer containing a protease inhibitor cocktail for 15 minutes at 4° C. […] After 2 hours incubation at 37° C. the reaction was terminated by the addition of 15 μl of 10M aqueous potassium hydroxide solution, and the plates incubated for a further 30 minutes at 37° C. The TAT activity product was measured by absorbance at λ 340 nm.
[compound] and fitting the data to a 4 parameter logistic equation. IC50 values were converted to Ki (equilibrium dissociation constant) using the Cheng and Prusoff equation, assuming the antagonists were competitive inhibitors with respect to dexamethasone.

[2] = target: glucocorticoid receptor (GR) recombinant ligand binding domain (LBD) (Homo sapiens (Human), UniProt P04150); assay: GR binding fluorescence polarisation (FP) assay; conditions: displacement of fluorescently tagged ligand
Chain of glucocorticoid receptor (GR) recombinant ligand binding domain (LBD) (P04150 524-758): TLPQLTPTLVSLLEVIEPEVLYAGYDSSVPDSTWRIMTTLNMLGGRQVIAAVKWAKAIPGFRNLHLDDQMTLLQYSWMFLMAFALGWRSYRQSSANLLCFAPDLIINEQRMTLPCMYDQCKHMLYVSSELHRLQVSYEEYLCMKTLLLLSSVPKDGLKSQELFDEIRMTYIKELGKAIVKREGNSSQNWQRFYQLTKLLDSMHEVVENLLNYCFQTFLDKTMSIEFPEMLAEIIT
Protocol: Binding of test compounds to the glucocorticoid receptor (GR) is determined using a fluorescence polarisation (FP) assay utilising a recombinant ligand binding domain (LBD) of GR. The test compounds are assessed by their ability to displace a fluorescently tagged ligand and detection of the resulting decrease in fluorescence polarisation.

| Compound | pKi [1] | pIC50 [2] |
| --- | --- | --- |
| CCCn1cc(S(=O)(=O)N2CCC3(c4cc5cnn(-c6ccc(F)cc6)c5cc4C)C(C2)C3(F)F)cn1 (centres unmarked) [Example 27, 5-(7,7-difluoro-3-((1-propyl-1H-pyrazol-4-yl)sulfonyl)-3-azabicyclo[4.1.0]heptan-6-yl)-1-(4-fluorophenyl)-6-methyl-1H-indazole] | 6.12 |  |
| Cn1cc(S(=O)(=O)N2CCC(Cc3ccccc3)(c3ccc4c(cnn4-c4ccc(F)cc4)c3)C2)cn1 (centres unmarked) [Example 158] | 6.79 |  |
| Cc1cc2c(cnn2-c2ccc(F)cc2)cc1C1(Cc2ccc3c(c2)nnn3C)CCN(S(C)(=O)=O)C1 (centres unmarked) [Example 183] | 6.74 |  |
| C#CCC1(c2cc3cnn(-c4ccc(F)cc4)c3cc2C)CCN(S(=O)(=O)c2cnn(CCC)c2)C1 (centres unmarked) [Example 186] | 7.43 |  |
| CCn1cc(-n2ncc3cc(C4(Cc5ccccc5)CCN(S(=O)(=O)c5cnn(C)n5)C4)c(C)cc32)ccc1=O (centres unmarked) [Example 268, 5-(5-(3-benzyl-1-((2-methyl-2H-1,2,3-triazol-4-yl)sulfonyl)pyrrolidin-3-yl)-6-methyl-1H-indazol-1-yl)-1-ethylpyridin-2(1H)-one] | 6.80 |  |
| COc1cc2c(cnn2-c2ccc(F)cc2)cc1C1(Cc2ccc(F)cc2)CCN(S(=O)(=O)c2cn(C)cn2)C1 (centres unmarked) [Example 216, 5-(3-(4-fluorobenzyl)-1-((1-methyl-1H-imidazol-4-yl)sulfonyl)pyrrolidin-3-yl)-1-(4-fluorophenyl)-6-methoxy-1H-indazole] | 7.28 |  |
| Cc1cc2c(cnn2-c2ccc(F)cc2)cc1C1(Cc2ccccc2)CCN(C(=O)c2cc(CO)ccn2)C1 (centres unmarked) [Example 200, (3-benzyl-3-(1-(4-fluorophenyl)-6-methyl-1H-indazol-5-yl)pyrrolidin-1-yl)(4-(hydroxymethyl)pyridin-2-yl)methanone] | 7.23 |  |
| CS(=O)(=O)N1CCC(Cc2ccccc2)(c2ccc3c(cnn3-c3ccc(F)cc3)c2)C1 (centres unmarked) [Example 157] | 6.59 |  |
| Cc1cc2c(cnn2-c2ccc(F)cc2)cc1C1(C(=O)c2ccccc2)CCN(S(=O)(=O)c2cnn(C)c2)C1 (centres unmarked) [Example 345, (3-(1-(4-fluorophenyl)-6-methyl-1H-indazol-5-yl)-1-((1-methyl-1H-pyrazol-4-yl)sulfonyl)pyrrolidin-3-yl)(phenyl)methanone] | 6.66 |  |
| Cn1ncc(S(=O)(=O)N2CCC(Cc3ccccc3)(c3cc4cnn(-c5ccc(=O)n(C)c5)c4cc3Cl)C2)n1 (centres unmarked) [Example 277, 5-(5-(3-benzyl-1-((2-methyl-2H-1,2,3-triazol-4-yl)sulfonyl)pyrrolidin-3-yl)-6-chloro-1H-indazol-1-yl)-1-methylpyridin-2(1H)-one] | 7.27 |  |
| Cc1cc2c(cnn2-c2ccc(=O)n(C3CC3)c2)cc1C1(Cc2ccccc2)CCN(S(=O)(=O)c2cnn(C)n2)C1 (centres unmarked) [Example 270, 5-(5-(3-benzyl-1-((2-methyl-2H-1,2,3-triazol-4-yl)sulfonyl)pyrrolidin-3-yl)-6-methyl-1H-indazol-1-yl)-1-cyclopropylpyridin-2(1H)-one] | 6.22 |  |
| Cn1ncc(S(=O)(=O)N2CCC(Cc3ccccc3)(c3cc4cnn(-c5ccc(F)cc5)c4cc3C#N)C2)n1 (centres unmarked) [Example 334, 5-(3-benzyl-1-((2-methyl-2H-1,2,3-triazol-4-yl)sulfonyl)pyrrolidin-3-yl)-1-(4-fluorophenyl)-1H-indazole-6-carbonitrile] | 7.28 |  |
| Cc1cc2c(cnn2-c2ccc(=O)n(C)c2)cc1C1(Cc2ccccc2)CCN(S(=O)(=O)c2cnn(CC(F)(F)F)c2)C1 (centres unmarked) [Example 278, 5-(5-(3-benzyl-1-((1-(2,2,2-trifluoroethyl)-1H-pyrazol-4-yl)sulfonyl)pyrrolidin-3-yl)-6-methyl-1H-indazol-1-yl)-1-methylpyridin-2(1H)-one] | 7.36 |  |
| Cc1cc2c(cnn2-c2cccc(C#N)c2)cc1C1(Cc2ccccc2)CCN(S(=O)(=O)c2cnn(C)n2)C1 (centres unmarked) [Example 241, 3-(5-(3-benzyl-1-((2-methyl-2H-1,2,3-triazol-4-yl)sulfonyl)pyrrolidin-3-yl)-6-methyl-1H-indazol-1-yl)benzonitrile] | 7.36 |  |
| Cc1cc2c(cnn2-c2ccc(F)cc2)cc1C1(CCc2ccccc2)CCN(S(=O)(=O)c2cnn(C)c2)C1 (centres unmarked) [Example 343, 1-(4-fluorophenyl)-6-methyl-5-(1-((1-methyl-1H-pyrazol-4-yl)sulfonyl)-3-phenethylpyrrolidin-3-yl)-1H-indazole] | 6.92 |  |
| CCCn1cc(S(=O)(=O)N2CCC(Cc3ccccc3)(c3cc4cnn(-c5ccc(F)cc5)c4cc3Cl)C2)cn1 (centres unmarked) [Example 224, 5-(3-benzyl-1-((1-propyl-1H-pyrazol-4-yl)sulfonyl)pyrrolidin-3-yl)-6-chloro-1-(4-fluorophenyl)-1H-indazole] | 7.68 |  |
| COCCn1cc(S(=O)(=O)N2CCN(c3cc4cnn(-c5ccc(F)cc5)c4cc3C)CC23CC3)cn1 [Example 78] | 7.15 |  |
| COC[C@@H]1CN(c2ccc3c(cnn3-c3ccc(F)cc3)c2)CCN1S(=O)(=O)c1cnn(CC2CC2)c1 [Example 15, (S)-5-(4-((1-(cyclopropylmethyl)-1H-pyrazol-4-yl)sulfonyl)-3-(methoxymethyl)piperazin-1-yl)-1-(4-fluorophenyl)-1H-indazole] |  | 6.34 |
| CCCn1cc(S(=O)(=O)N2CC=C(c3ccc4c(cnn4-c4ccc(F)cc4)c3)CC2)cn1 [Example 137] |  | 6.51 |

| Compound | pKi [1] | pIC50 [2] |
| --- | --- | --- |
| 1-(4-fluorophenyl)-5-(4-(methoxymethyl)-1-((1-propyl-1H-pyrazol-4-yl)sulfonyl)piperidin-4-yl)-1H-indazole [Example 23] |  | 5.89 |
| Cc1cc2c(cnn2-c2ccc(F)cc2)cc1N1CCC(NS(C)(=O)=O)CC1 [Example 106] |  | 8.05 |
| CCCn1cc(S(=O)(=O)N(C)C2CCCN(c3cc4cnn(-c5ccc(F)cc5)c4cc3C)C2)cn1 (centres unmarked) [Example 128] |  | 6.23 |
| CC(=O)N1CCN(c2ccc3c(cnn3-c3ccc(F)cc3)c2)C[C@H]1CC(C)C [Example 99] |  | 6.05 |
| CCCn1cc(S(=O)(=O)N2CCN(c3cc4cnn(-c5ccc(F)cc5)c4cc3C)C(=O)C2)cn1 [Example 209, 1-(1-(4-fluorophenyl)-6-methyl-1H-indazol-5-yl)-4-((1-propyl-1H-pyrazol-4-yl)sulfonyl)piperazin-2-one] |  | 5.41 |
| CCCn1cc(S(=O)(=O)N2CCN(c3ccc4c(cnn4-c4ccc(F)cc4)c3)C[C@H]2C)c(C)n1 [Example 57] |  | 6.60 |
| Cc1cc2c(cnn2-c2ccc(F)cc2)cc1N1CCC2(CCN(S(=O)(=O)c3cnn(C)c3)CC2)C1 [Example 96] |  | 5.59 |
| Cc1cc2c(cnn2-c2ccc(F)cc2)cc1N1CC[C@@H](N(C)S(=O)(=O)c2cnn(C)c2)C1 [Example 115] |  | 7.68 |
| C[C@@H]1CN(S(C)(=O)=O)[C@H](C)CN1c1ccc2c(cnn2-c2ccc(F)cc2)c1 [Example 62] |  | 6.37 |
| CCCn1cc(S(=O)(=O)N2CCCC23CCN(c2cc4cnn(-c5ccc(F)cc5)c4cc2C)CC3)cn1 [Example 89] |  | 6.36 |
| CCCn1cc(S(=O)(=O)N2CC[C@H](c3cc4cnn(-c5ccc(F)cc5)c4cc3C)C[C@H]2C)cn1 [Example 13, 1-(4-fluorophenyl)-6-methyl-5-((2R,4S)-2-methyl-1-((1-propyl-1H-pyrazol-4-yl)sulfonyl)piperidin-4-yl)-1H-indazole] |  | 7.09 |
| CCCNS(=O)(=O)N1CCN(c2ccc3c(cnn3-c3ccc(F)cc3)c2)C[C@H]1C [Example 63] |  | 6.67 |
| Cc1cc2c(cnn2-c2ccc(F)cc2)cc1N1CCC(N(C)S(C)(=O)=O)CC1 [Example 116] |  | 7.14 |
| Cc1cc2c(cnn2-c2ccc(F)cc2)cc1N1CCCC(N(C)S(=O)(=O)c2cnn(C)c2)C1 (centres unmarked) [Example 127] |  | 6.76 |
| C[C@@H]1CN(c2ccc3c(cnn3-c3ccc(F)cc3)c2)CCN1S(=O)(=O)c1ccc(F)c(F)c1 [Example 40] |  | 6.26 |
| Cc1cc2c(cnn2-c2ccc(F)cc2)cc1C1=CCN(S(C)(=O)=O)CC1 [Example 138] |  | 7.00 |
| CCCS(=O)(=O)N1CCN(c2ccc3c(cnn3-c3ccc(F)cc3)c2)C[C@H]1C [Example 104, (R)-1-(4-fluorophenyl)-5-(3-methyl-4-(propylsulfonyl)piperazin-1-yl)-1H-indazole] |  | 6.57 |
| CCCn1cc(S(=O)(=O)N(C)[C@H]2CCN(c3cc4cnn(-c5ccc(F)cc5)c4cc3C)C2)cn1 [Example 5, (S)—N-(1-(1-(4-fluorophenyl)-6-methyl-1H-indazol-5-yl)pyrrolidin-3-yl)-N-methyl-1-propyl-1H-pyrazole-4-sulfonamide] |  | 6.90 |
| CCCn1cc(S(=O)(=O)N2CCC(c3ccc4c(cnn4-c4ccc(F)cc4)c3)CC2)cn1 [Example 135] |  | 6.33 |

— patent US11787780B2 (CORCEPT THERAPEUTICS INCORPORATED, priority 2020, dated 2023)
